# Like-named read-outs stand apart in the source and are kept apart here.
# What was measured:
# [1] = test system: hedgehog expressing tumor cells; assay type: cell-based
# Mia PaCa-2 cells = test: Colony formation assay
# Experimental: Mia PaCa-2 cells were grown in DMEM high glucose, and supplemented with L-glutamine, 10% fetal bovine serum (FBS), and penicillin/streptomycin 1%.
# 250 to 1000 cells were plated in 60 mm dishes. Cells were incubated overnight. At twenty four hours cells were irradiated (3.5 Gy). Cyclopamine 2-10 μMol (Toronto Research Chemicals, TRC, supplier, Canada) was added to culture media, or combination of both. For chemotherapeutic agents, the drug was added to culture media at appropriate concentrations 24 hours after plating. Cultures were incubated for 10-14 days. […] Plating efficiency was normalized compared to control.
# Mia PcCa-2 cells = test: Annexin V-PE apoptosis assay; assay type: cell-based, human; conditions: 24 hours
# Experimental: (§1) Cyclopamine 4 μmol was added to culture media of exponentially growing cells with or without chemotherapeutic agents and irradiated at 12 hours. Cells were trypsinized after 24, 48 or 72 hours. Annexin levels were measured (Annexin V: PE Apoptosis Detection Kit, BD Biosciences Pharningen™, San Jose, Calif.) for 0.5×10^6 freshly detached cells. The presence of membrane permeabilization was monitored by 7-AAD (7-Amino-actinomycinD) staining per manufacturer's protocol. Cells were subsequently analyzed by FACScan (BD FACSCanto™, BD Biosciences Immunocytometry Systems™, San Jose, Calif. with the use of CellQuest software (BD CellQuest™ Pro, BD Biosciences Immunocytometry Systems™, San Jose, Calif. The percentage of apoptotic cells was calculated by scoring for cells positive for either annexin alone (early apoptotic) or both annexin and 7-AAD (late apoptotic). All experiments were done in triplicate.
# BxPC-3 cells = test: Colony formation assay; assay type: cell-based, human
# Experimental: (§2) Cells were incubated overnight. […] Cultures were incubated for 10-14 days. […] Plating efficiency was normalized compared to control.
# HCT 116 cells = test: Colony formation assay; assay type: cell-based, human
# Experimental: as §2
# [2] = test system: hedgehog expressing tumor cells; assay type: cell-based; remark: listed apart in the source
# Experimental: as §1
# [3] = test system: prostate cancer xenografts; conditions: high dose treatment; cited from earlier work
# [4] = test system: murine tumor allografts of medulloblastoma; conditions: mouse, in vivo; cited from earlier work
# [5] = test system: pancreatic cancer cell lines with over-activation of Hh pathway signaling; conditions: cited from earlier work
# [6] = cyclopamine 4 μM and irradiation 3.5 Gy
compound,measurement,setting,value
CC1=C2C(=O)C3C(CC=C4CC(O)CCC43C)C2CCC12OC1CC(C)CNC1C2C (centres unmarked) [jervine],apoptosis of combination with radiation vs radiation alone (in words),[1]; jervine 4 μMol and radiation 3.5 Gy,differ little from radiation alone
same,"apoptosis (Annexin V assay, in words)","[1]; jervine 4 μMol, 24, 48 or 72 hours",induces apoptosis in an increasing percentage of cells in a time-dependent manner
same,cytotoxic effect when combined with irradiation (in words),"[1]; jervine, hedgehog expressing tumor cells",additive cytotoxic effect
Nc1ccn([C@@H]2O[C@H](CO)[C@@H](O)C2(F)F)c(=O)n1 [Gemcitabine],survival (colony formation),Mia PaCa-2 cells; gemcitabine 7.3 nM alone,35%
N.N.[Cl][Pt][Cl] [Cisplatin],survival (colony formation),Mia PaCa-2 cells; cisplatin 0.8 μM alone,35%
"CC(=O)O[C@H]1C(=O)[C@@]2(C)[C@H]([C@H](OC(=O)c3ccccc3)[C@]3(O)C[C@H](OC(=O)[C@H](O)[C@@H](NC(=O)c4ccccc4)c4ccccc4)C(C)=C1C3(C)C)[C@]1(OC(C)=O)CO[C@@H]1C[C@@H]2O [taxol, Paclitaxel]",survival (colony formation),Mia PaCa-2 cells; taxol 3.5 nM alone,91%
same,apoptosis (AnnexinV staining),Mia PcCa-2 cells; taxol 1.7 nM,64.9%
CC1=C2C[C@H]3[C@@H](CC=C4C[C@@H](O)CC[C@@]43C)[C@@H]2CC[C@]12O[C@@H]1C[C@H](C)CN[C@H]1[C@H]2C [cyclopamine],survival (colony formation),Mia PaCa-2 cells; cyclopamine 4 μM alone,29%
same,survival (colony formation),Mia PaCa-2 cells; [6],4%
same,survival (colony formation),Mia PaCa-2 cells; cyclopamine 10 μM,7%
same,cytotoxic effect when combined with irradiation (in words),Mia PaCa-2 cells; hedgehog expressing tumor cells,additive cytotoxic effect
same,survival (colony formation),BxPC-3 cells; [6],7%
same,survival (colony formation),BxPC-3 cells; cyclopamine 10 μM,11%
same,survival (colony formation),BxPC-3 cells; cyclopamine 4 μMol alone,33%
same,effect on survival following irradiation (in words),HCT 116 cells; cells that do not express the hedgehog pathway,did not have a significant effect on survival
same,survival (colony formation),HCT 116 cells; [6],35%
same,survival (colony formation),HCT 116 cells; cyclopamine 10 μM,74%
same,survival (colony formation),HCT 116 cells; cyclopamine 4 μMol alone,92%
same,apoptosis (AnnexinV staining),Mia PcCa-2 cells; cyclopamine 4 μMol,18.2%
same,apoptosis of combination with radiation vs radiation alone (in words),[2]; cyclopamine 4 μMol and radiation 3.5 Gy,not significantly different from radiation alone
same,apoptotic cells (Annexin assay),"[2]; cyclopamine 4 μMol and radiation 3.5 Gy, 24 hours",32.11%
same,apoptotic cells (Annexin assay),"[2]; cyclopamine 4 μMol and radiation 3.5 Gy, 48 hours",28.5%
same,apoptotic cells (Annexin assay),"[2]; cyclopamine 4 μMol and radiation 3.5 Gy, 72 hours",32.3%
same,apoptotic cells (Annexin assay),"[2]; cyclopamine 4 μMol, 24 hours",18.15%
same,apoptotic cells (Annexin assay),"[2]; cyclopamine 4 μMol, 48 hours",29.8%
same,apoptotic cells (Annexin assay),"[2]; cyclopamine 4 μMol, 72 hours",32.9%
same,tumor response (in words),[3],complete regression
same,tumor response (in words),[4],anti-tumor effects
same,apoptosis (in words),[5],induced apoptosis

# — patent US20070281040A1, “COMBINATION THERAPY OF HEDGEHOG INHIBITORS, RADIATION AND CHEMOTHERAPEUTIC AGENTS” (THE UNIVERSITY OF CHICAGO, priority 2004, published 2007)
